Data taken from patent US20110071094A1, “(D)-ALLOSE INDUCING PROGRAMMED CELL DEATH IN HORMONE REFRACTORY PROSTATE CANCER LINES” (INDUSTRY-ACADEMIC COOPERATION FOUDATION, GYEONGSANG …, priority 2008, published 2011).

Experiments:
Type in all cases: cell-based, human
Bax mRNA = experiment: RT-PCR of Bax mRNA in DU145; details: DU145, 72 h, 0, 20 and 40 mM; relative to reduced Bcl-2 mRNA
Protocol: (§1) To identify the relative levels of expression of Bcl-2, Bax and Caspase 3 mRNAs after 0, 20 and 40 mM of D-allose treatments for 72 h, RT-PCR was performed. DU145 cell line (1×10^6 cells in triplicate culture plates) was harvested as mentioned above and total RNA was extracted using TRIzol reagent (Invitrogen, Carlsbad, Calif., USA) following a standard laboratory protocol. The RNA purity and concentrations were determined. Then 2 μg of total RNA was reversely transcribed to single-stranded cDNA using Oligo(dT)12-18 primer (Invitrogen, Carlsbad, Calif., USA) with M-MLV reverse transcriptase (Promega, Madison, Wis., USA). For PCR reaction, 4 μl of cDNA was reacted with 20 pmol each of the forward and reverse primers (Bioneer Corporation, Seoul, South Korea), and GoTaq® Green Master Mix […] containing PCR buffer, 25 mM magnesium chloride, 10 mM dNTP mix and Taq enzyme (Promega, Madison, Wis., USA), and amplified. […] The molecular sizes of the amplified products were determined by comparison with the molecular weight marker (100 by DNAladder; Promega, Madison, Wis., USA) run parallel with the PCR products. The densities of mRNA bands were analyzed by Molecular Analyst™, version 1.4.1 (Bio-Rad, Hercules, Calif., USA).

Bcl-2 mRNA = experiment: RT-PCR of Bcl-2 mRNA in DU145; details: DU145, 72 h, 0, 20 and 40 mM
Protocol: as §1

DU145 cell line [1] = experiment: Apoptotic indices by DAPI staining, confocal microscopy; details: DU145, 24, 48 and 72 h
Protocol: (§2) The Annexin-V-FLUOS Staining Kit (Roche Diagnostics GmbH, Mannheim, Germany) was used for the detection and quantification of the apoptotic cells. This kit uses a dual-staining protocol in which the apoptotic cells are stained with annexin-V (green fluorescence) and the necrotic cells are stained with propidium iodide (PI, red fluorescence). Briefly, DU145 cell line was grown at a density of 1×10^6 cells in triplicate culture plates and then treated with D-allose (0, 20 and 40 mM) for 48 and 72 h. The cells were treated with trypsin and harvested with PBS and processed for labeling with annexin-V and PI by the use of the kit according to the manufacturer's protocol. The fluorescence was measured by flow cytometric analysis, performed on a FACSCalibur (Becton Dickinson, San Jose, Calif., USA) using 488 nm excitation and a 515 nm band pass filter for fluorescein detection and a filter [600 nm for PI detection (FL1: Annexin-V-FLUOS; FL2: PI). Further, apoptotic indices were measured by analysis of fragmented or scattered nuclei and condensed chromosome as the stringent morphological criteria of apoptosis, detectable by confocal microscopy on cells stained with DNA-intercalating dye […] (DAPI). For this purpose, DU145 and PrEC cell lines were exposed to 0, 20 and 40 mM of D-allose for up to 72 h, stained with DAPI (1 μg/ml in methanol), mounted with Prolong Antifade reagent (Molecular Probes, Eugene, Oreg., USA), and images were acquired by use of a confocal laser scanning microscope (Fluoview FV 1000, Olympus, Japan). The numbers of apoptotic nuclei per 100 cells were counted from the five high power fields/slide and apoptotic indices were expressed as a percentage of the untreated controls in each cell line, considering the value as 100%. DU145 cell line was also treated with 0-40 mM of D-glucose for determination of apoptotic indices as mentioned above.

PrEC cell line = experiment: as above; details: PrEC, 24, 48 and 72 h
Protocol: as §2

DU145 cell line [2] = experiment: Fura-2 measurement of [Ca^2+]c; details: DU145, 20 and 40 mM, 48 h
Protocol: [Ca^2+]c was measured by fluorescent indicator fura-2 acetoxymethyl ester (fura-2 AM) as described in Malgaroli A et al., J. Cell. Biol. 105:2145-2155, 1987. Briefly, DU145 cell line (1×10^6 cells in triplicate culture plates) was exposed to 0, 20 and 40 mM of D-allose for 48 and 72 h and then incubated with serum-free culture media containing 5 μM of fura-2AM at 37° C. in dark for another 1 h. The cells were washed twice with Locke's solution (pH 7.3) and the fura-2 fluorescence signals of [Ca^2+]c were measured by luminescence spectrophotometer (LS 50B, Perkin Elmer, Boston, Mass., USA) using 340 and 380 nm as excitation wavelengths (λex), and 510 nm as emission wavelength (λem). […] The slides were mounted with Prolong Antifade reagent (Molecular Probes, Eugene, Oreg., USA), and images (JC-1, green) were acquired by use of a fluorescence microscope (Axioplan 2, Carl Zeiss, Germany).

cyt C = experiment: Mitochondrial cyt C release and nuclear morphology, immunofluorescence; details: DU145, 20 and 40 mM, 48 h
Protocol: The in situ analysis of cyt C was carried out by immunofluorescence technique. […] Cyt C was detected by using mouse anti-cyt C antibody and rabbit anti-mouse FITC-labeled antibody (1:250 and 1:200, respectively; Santa Cruz Biotechnology, Santa Cruz, Calif., USA). DU145 cell line treated with FITC-labeled secondary antibody alone was considered as negative control. Subsequently, chromatin was stained with PI (1 mg/ml in PBS) for 20 min in dark and slides were mounted with Prolong Antifade reagent (Molecular Probes, Eugene, Oreg., USA). Cyt C (green) and chromatin (red) staining patterns were acquired by use of a confocal laser scanning microscope (Fluoview FV 1000, Olympus, Japan).

Structure (SMILES): O=C[C@H](O)[C@H](O)[C@H](O)[C@H](O)CO [D-allose]
- Bax mRNA expression (Bax mRNA): opposite effect
- Bcl-2 mRNA expression (Bcl-2 mRNA): significantly reduced
- programmed cell death (apoptotic indices, DAPI staining) (DU145 cell line [1]): significant dose- and time-dependent programmed cell death
- programmed cell death (apoptotic indices, DAPI staining) (PrEC cell line): very negligible effect
- [Ca^2+]c (DU145 cell line [2]): remarkably elevated
- cyt C release from mitochondria and chromatin condensation (cyt C): release of cyt C from mitochondria into cytosol and chromatin condensation
